The source of these data is patent US20090196930A1, “AEROSOLIZED NITRITE AND NITRIC OXIDE -DONATING COMPOUNDS AND USES THEREOF” (Aires Pharmaceuticals, Inc., priority 2007, published 2009).

Like-named read-outs stand apart in the source and are kept apart here.

For series [1] the following is noted: cited from earlier work.
In series [2] the test system is phenylepherine-induced contractions of aortic rings. Description: Isolated rat aortic ring relaxation.
Description: The isolated rat aortic ring model tests whether a drug solution reduces the phenylepherine-induced pre-contractions of aortic rings. Briefly, rat aorta was excised and cleansed of fat and adhering tissue. Vessels were then cut into individual ring segments (2-3 mm in width) and suspended from a force-displacement transducer in a tissue bath. […] A passive load of 2 grams was applied to all ring segments and maintained at this level throughout the experiments. At the beginning of each experiment, indomethacin-treated ring segments were depolarized with KCl (70 mM) to determine the maximal contractile capacity of the vessel. Rings were then washed extensively and allowed to equilibrate. For subsequent experiments, vessels were submaximally contracted (50% of KCl response) with phenylephrine (PE) (3×10^−8-10^−7 M).
Briefly, a rat aorta was excised and cleansed of fat and adhering tissue. Vessels were then cut into individual ring segments (2-3 mm in width) and suspended from a force-displacement transducer in a tissue bath. […] A passive load of 2 grams was applied to all ring segments and maintained at this level throughout the experiments. At the beginning of each experiment, indomethacin-treated ring segments were depolarized with KCl (70 mM) to determine the maximal contractile capacity of the vessel. Rings were then washed extensively and allowed to equilibrate. […]
The conditions of series [3]: NAL DPI formulation, monodose DPI device, in vitro; cited from earlier work.

As for `NC(=O)CN(CC(=O)O)CC(=O)O` [ADA, N-(2-ametamino)iminodiacetic acid], the values for the pKa in series [1] (exemplary buffers of Table 1) and in series [1] (exemplary buffers of Table 2) were 6.60 and 6.6, respectively.
Regarding `CC(C)(CO)NCC(O)CS(=O)(=O)O` (centres unmarked) [AMPSO, N-(1,1-dimethyl-2-hydroxyethyl)-3-amino-2-hydroxypropane-sulfonic acid], the pKa in series [1] (exemplary buffers of Table 2) is on record as 9.0.
For the compound `O=S(=O)(O)CCN(CCO)CCO` [BES, N,N-Bis(2-hydroxyethyl)-2-aminoethanesulfonic acid], the pKa in series [1] (exemplary buffers of Table 2) is 7.1.
For `OCC(CO)(CO)NCCCNC(CO)(CO)CO` [BIS-TRIS Propane, 1,3-Bis[tris(hydroxymethyl)methylamino]propane], in series [1] (exemplary buffers of Table 2), the pKa is recorded as 6.8.
Take `O=S(=O)(O)CCNC1CCCCC1` [CHES, 2-(cyclohexylamino)ethanesulfonic acid]: in series [1] (exemplary buffers of Table 2), the pKa is 9.3.
Consider `O=S(=O)(O)CCCN1CCN(CCO)CC1` [EPPS, N-(2-hydroxyethyl)piperazine-N′-(3-propanesulfonic acid)], for which, in series [1] (exemplary buffers of Table 2), the pKa is reported as 8.0.
In the case of `O=S(=O)(O)CCN1CCN(CCS(=O)(=O)O)CC1` [PIPES, Piperazine-N,N′-bis(2-ethanesulfonic acid)], the pKa in series [1] (exemplary buffers of Table 1) is listed as 6.76; in series [1] (exemplary buffers of Table 2) it was 6.8.
For the compound `CCCc1nn(C)c2c(=O)[nH]c(-c3cc(S(=O)(=O)N4CCN(C)CC4)ccc3OCC)nc12` [Sildenafil], the “reduction in phenylepherine-induced aortic constriction” value in series [2] (50 nM sildenafil) is given as around 50%. Further, in series [2] (relaxation of phenylephrine-contracted rat aortic rings, read-out: ED50 (the source's name)), the EC50 was 50 nM.
In the case of `O=S(=O)(O)CC(O)CNC(CO)(CO)CO` (centres unmarked) [TAPSO, 2-hydroxy-3-[tris(hydroxymethyl)methylamino]-1-propanesulfonic acid], the pKa in series [1] (exemplary buffers of Table 2) is recorded as 7.6.
With `O=C(O)CNC(CO)(CO)CO` [Tricine], the pKa in series [1] (exemplary buffers of Table 2) is given as 8.1.
With L-lysine-N-acetylcysteinate [NAL], the “fine particle fraction (FPF) of the nominal dose” value in series [3] is on record as “at least 30%”.
